Experimental data taken from publication PMC10518257 (Nature Cancer, 2023).
Values joined by “and” are separate entries in the source; they are usually repeats but may differ in a detail not shown here. Equal entries are not always repeated. Where two headings read alike, the source gives them in different places.

Assays:
HBECp53-EV cells = assay: Growth inhibition (alamarBlue, 96 h); assay type: cell-based, human; conditions: Homo sapiens, 96 h, read-out: IC50 for Inhibition of Growth (95% CI)
Ba/F3-RET^M918T = assay: Growth inhibition assay in Ba/F3 cells (CellTiter-Glo, 72 h); assay type: cell-based; conditions: Mus musculus, BaF3, 72 h, read-out: GI50 value (Mean ± SD), Ba/F3-RET^M918T, CellTiter-Glo, 72 h
[1] = system: Ba/F3 cells expressing KIF5B–RET^G810R; assay: as above; assay type: cell-based; conditions: replicate Sets 1-3
[2] = Animal weight of tumor-bearing mice; conditions: for Animal Weight (g), Mean: Ba/F3-KIF5B::RET tumor-bearing mice (Ext. Data Fig 8i); for Animal Weight: individual animals
[3] = system: LUAD-0002AS1 cells (KIF5B::RET); assay: Dose-response western blotting, EC50 for inhibition of protein phosphorylation; assay type: cell-based; conditions: Homo sapiens, LUAD-0002AS1, 2 h, densitometry
[4] = biological target: T1, panel of 255 (vepafestinib) or 256 (all other inhibitors) recombinant kinases (Homo sapiens, UniProt P16234); assay: Kinase selectivity profiling at a single concentration (Carna Biosciences); assay type: biochemical; conditions: 17 nM
T1 construct: purchased Carna Biosciences

[5] = biological target: panel of 255 (vepafestinib) or 256 (all other inhibitors) recombinant kinases; assay: as above; assay type: biochemical; conditions: 17 nM, 256 kinases
[6] = biological target: T2, panel of 255 (vepafestinib) or 256 (all other inhibitors) recombinant kinases (Homo sapiens, UniProt P35916); assay: as above; assay type: biochemical; conditions: 17 nM
T2 construct: purchased Carna Biosciences
T2 sequence (P35916 25-1363): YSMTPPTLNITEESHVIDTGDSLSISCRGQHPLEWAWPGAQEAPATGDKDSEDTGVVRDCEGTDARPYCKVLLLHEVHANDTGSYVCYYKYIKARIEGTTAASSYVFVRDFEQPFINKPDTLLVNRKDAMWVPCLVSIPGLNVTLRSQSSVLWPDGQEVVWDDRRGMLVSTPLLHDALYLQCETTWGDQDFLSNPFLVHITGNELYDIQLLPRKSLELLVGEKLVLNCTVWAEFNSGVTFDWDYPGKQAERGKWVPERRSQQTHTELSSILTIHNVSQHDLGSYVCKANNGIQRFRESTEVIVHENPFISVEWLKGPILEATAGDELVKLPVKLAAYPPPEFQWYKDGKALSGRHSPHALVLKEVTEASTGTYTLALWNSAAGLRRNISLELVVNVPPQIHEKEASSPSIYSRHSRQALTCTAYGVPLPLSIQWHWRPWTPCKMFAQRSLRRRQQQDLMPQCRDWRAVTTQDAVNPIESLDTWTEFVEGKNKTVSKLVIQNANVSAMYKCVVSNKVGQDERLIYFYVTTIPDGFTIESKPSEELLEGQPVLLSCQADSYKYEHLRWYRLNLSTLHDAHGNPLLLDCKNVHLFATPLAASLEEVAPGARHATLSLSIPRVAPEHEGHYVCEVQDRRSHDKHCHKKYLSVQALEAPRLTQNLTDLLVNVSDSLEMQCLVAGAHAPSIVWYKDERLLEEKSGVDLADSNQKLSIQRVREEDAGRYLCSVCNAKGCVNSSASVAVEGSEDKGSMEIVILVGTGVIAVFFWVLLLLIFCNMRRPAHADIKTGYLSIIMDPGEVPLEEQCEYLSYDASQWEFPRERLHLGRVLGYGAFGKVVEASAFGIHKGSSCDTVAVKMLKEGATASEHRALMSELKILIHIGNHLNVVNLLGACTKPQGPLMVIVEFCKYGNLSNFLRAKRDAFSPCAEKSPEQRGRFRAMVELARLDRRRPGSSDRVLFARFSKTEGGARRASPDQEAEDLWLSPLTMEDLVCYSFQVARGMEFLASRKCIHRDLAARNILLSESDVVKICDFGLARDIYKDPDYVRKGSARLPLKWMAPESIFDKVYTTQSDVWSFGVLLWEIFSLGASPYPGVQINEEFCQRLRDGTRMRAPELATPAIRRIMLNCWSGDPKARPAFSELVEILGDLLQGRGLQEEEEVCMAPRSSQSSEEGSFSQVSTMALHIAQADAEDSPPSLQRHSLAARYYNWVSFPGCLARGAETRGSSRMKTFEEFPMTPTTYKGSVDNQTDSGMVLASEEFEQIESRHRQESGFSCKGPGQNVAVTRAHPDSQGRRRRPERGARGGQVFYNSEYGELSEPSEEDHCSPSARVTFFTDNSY

T1 sequence (P16234 24-1089): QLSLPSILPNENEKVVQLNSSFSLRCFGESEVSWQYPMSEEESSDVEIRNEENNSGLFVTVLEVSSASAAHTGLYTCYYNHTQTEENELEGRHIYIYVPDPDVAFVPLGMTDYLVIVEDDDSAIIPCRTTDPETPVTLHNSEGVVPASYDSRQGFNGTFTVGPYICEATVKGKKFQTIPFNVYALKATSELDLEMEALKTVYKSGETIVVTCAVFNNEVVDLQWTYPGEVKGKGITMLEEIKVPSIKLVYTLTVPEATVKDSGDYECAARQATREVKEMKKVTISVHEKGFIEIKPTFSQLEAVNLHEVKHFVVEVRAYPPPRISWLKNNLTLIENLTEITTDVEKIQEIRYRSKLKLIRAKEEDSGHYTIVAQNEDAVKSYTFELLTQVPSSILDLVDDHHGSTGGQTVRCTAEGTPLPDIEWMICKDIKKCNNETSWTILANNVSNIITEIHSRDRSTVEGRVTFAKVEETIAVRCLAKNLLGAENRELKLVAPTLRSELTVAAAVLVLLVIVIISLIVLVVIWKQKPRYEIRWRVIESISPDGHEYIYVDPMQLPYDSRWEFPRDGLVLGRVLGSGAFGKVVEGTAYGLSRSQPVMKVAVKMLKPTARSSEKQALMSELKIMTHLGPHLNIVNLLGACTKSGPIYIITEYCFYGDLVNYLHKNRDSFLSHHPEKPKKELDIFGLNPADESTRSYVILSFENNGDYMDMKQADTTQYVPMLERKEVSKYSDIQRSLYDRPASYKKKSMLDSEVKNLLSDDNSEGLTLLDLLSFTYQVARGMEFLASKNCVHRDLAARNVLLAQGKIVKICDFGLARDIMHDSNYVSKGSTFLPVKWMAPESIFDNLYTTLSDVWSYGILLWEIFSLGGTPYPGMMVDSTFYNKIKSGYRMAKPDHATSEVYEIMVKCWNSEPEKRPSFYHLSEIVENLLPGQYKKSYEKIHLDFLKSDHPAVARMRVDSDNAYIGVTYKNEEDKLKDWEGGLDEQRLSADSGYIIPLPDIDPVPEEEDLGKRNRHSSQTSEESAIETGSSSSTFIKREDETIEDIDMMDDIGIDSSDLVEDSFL

For `CO[C@]1(C(=O)N[C@@H](C)c2ccc(-n3cc(F)cn3)nc2)CC[C@H](c2nc(C)cc(Nc3cc(C)[nH]n3)n2)CC1` [Pralsetinib], the IC50 (HBECp53-EV cells) was 6900 nM, the GI50 (Ba/F3-RET^M918T) was 1.62 ± 0.77 nM and the GI50 ([1]; Ba/3-KIF5B-RET-G810R) was 1420 nM and 1200 nM. The GI50 ([1]; Mus musculus, BaF3, Ba/3-KIF5B-RET-G810R) was 816 nM, the “Animal Weight, Mean” value ([2]; Ba/F3-KIF5B::RET G810R (Fig 8f), Pralsetinib 10 mg/kg BID, day 1) was 26.74 g and the “Animal Weight, Mean” value ([2]; Ba/F3-KIF5B::RET G810R (Fig 8f), Pralsetinib 10 mg/kg BID, day 4) was 26.42 g. For the same compound, the “Animal Weight, Mean” value ([2]; Ba/F3-KIF5B::RET G810R (Fig 8f), Pralsetinib 10 mg/kg BID, day 8) was 25.72 g, the “Animal Weight, Mean” value ([2]; Ba/F3-KIF5B::RET G810R (Fig 8f), Pralsetinib 10 mg/kg BID, day 11) was 26.48 g and the “Animal Weight, Mean” value ([2]; Ba/F3-KIF5B::RET G810R (Fig 8f), Pralsetinib 10 mg/kg BID, day 15) was 26.66 g. For the same compound, the “Animal Weight, Mean” value ([2]; Ba/F3-KIF5B::RET G810R (Fig 8g), Pralsetinib 30 mg/kg BID, day 1) was 25.3 g, the “Animal Weight, Mean” value ([2]; Ba/F3-KIF5B::RET G810R (Fig 8g), Pralsetinib 30 mg/kg BID, day 4) was 26.8 g and the “Animal Weight, Mean” value ([2]; Ba/F3-KIF5B::RET G810R (Fig 8g), Pralsetinib 30 mg/kg BID, day 8) was 26.6 g. The “Animal Weight, Mean” value ([2]; Ba/F3-KIF5B::RET G810R (Fig 8g), Pralsetinib 30 mg/kg BID, day 11) was 25.3 g, the “Animal Weight, Mean” value ([2]; Ba/F3-KIF5B::RET G810R (Fig 8g), Pralsetinib 30 mg/kg BID, day 15) was 26.0 g and the “Animal Weight (g), Mean” value ([2]; 3 mg/kg BID, day 1) was 26.4 g. For the same compound, the “Animal Weight (g), Mean” value ([2]; 3 mg/kg BID, day 4) was 26.5 g, the “Animal Weight (g), Mean” value ([2]; 3 mg/kg BID, day 8) was 26.3 g and the “Animal Weight (g), Mean” value ([2]; 3 mg/kg BID, day 11) was 27.3 g. For the same compound, the “Animal Weight (g), Mean” value ([2]; 3 mg/kg BID, day 15) was 27.9 g, the “Animal Weight (g), Mean” value ([2]; 10 mg/kg BID, day 1) was 26.2 g and the “Animal Weight (g), Mean” value ([2]; 10 mg/kg BID, day 4) was 26.8 g. The “Animal Weight (g), Mean” value ([2]; 10 mg/kg BID, day 8) was 26.6 g, the “Animal Weight (g), Mean” value ([2]; 10 mg/kg BID, day 11) was 26.8 g and the “Animal Weight (g), Mean” value ([2]; 10 mg/kg BID, day 15) was 27.7 g. For the same compound, the “Animal Weight (g), Mean” value ([2]; 30 mg/kg BID, day 1) was 26.2 g, the “Animal Weight (g), Mean” value ([2]; 30 mg/kg BID, day 4) was 26.3 g and the “Animal Weight (g), Mean” value ([2]; 30 mg/kg BID, day 8) was 25.8 g. The “Animal Weight (g), Mean” value ([2]; 30 mg/kg BID, day 11) was 26.9 g, the “Animal Weight (g), Mean” value ([2]; 30 mg/kg BID, day 15) was 27.4 g and the “Animal Weight (g), Mean” value ([2]; 60 mg/kg BID, day 1) was 25.8 g. For the same compound, the “Animal Weight (g), Mean” value ([2]; 60 mg/kg BID, day 4) was 25.8 g, the “Animal Weight (g), Mean” value ([2]; 60 mg/kg BID, day 8) was 25.6 g and the “Animal Weight (g), Mean” value ([2]; 60 mg/kg BID, day 11) was 26.0 g. For the same compound, the “Animal Weight (g), Mean” value ([2]; 60 mg/kg BID, day 15) was 26.0 g, the “Animal Weight” value ([2]; LUAD-0077AS1 PDX, Pralsetinib 30 mg/kg BID, treatment day 0) was 23 g (2×) and 26 g (2×) and 21 g (2×) and 24 g and 25 g (2×) and 22 g and the “Animal Weight” value ([2]; LUAD-0077AS1 PDX, Pralsetinib 30 mg/kg BID, treatment day 4) was 26 g (2×) and 23 g and 21 g (2×) and 24 g (2×) and 25 g (2×) and 22 g. For the same compound, the “Animal Weight” value ([2]; LUAD-0077AS1 PDX, Pralsetinib 30 mg/kg BID, treatment day 7) was 26 g (2×) and 23 g and 21 g and 22 g (2×) and 25 g (2×) and 27 g and 24 g, the “Animal Weight” value ([2]; LUAD-0087AS2 PDX, Pralsetinib 30 mg/kg BID, treatment day 0) was 28 g and 27 g (2×) and 23 g and 26 g and the “Animal Weight” value ([2]; LUAD-0087AS2 PDX, Pralsetinib 30 mg/kg BID, treatment day 3) was 28 g and 27 g and 26 g and 24 g (2×). For the same compound, the “Animal Weight” value ([2]; LUAD-0087AS2 PDX, Pralsetinib 30 mg/kg BID, treatment day 7) was 28 g and 26 g (2×) and 24 g and 25 g, the “Animal Weight” value ([2]; LUAD-0087AS2 PDX, Pralsetinib 30 mg/kg BID, treatment day 10) was 28 g and 27 g and 26 g and 25 g (2×) and the “Animal Weight” value ([2]; LUAD-0087AS2 PDX, Pralsetinib 30 mg/kg BID, treatment day 14) was 29 g and 27 g and 26 g and 25 g (2×). The “Animal Weight” value ([2]; LUAD-0087AS2 PDX, Pralsetinib 30 mg/kg BID, treatment day 17) was 29 g and 25 g (3×) and 26 g, the “Animal Weight” value ([2]; LUAD-0087AS2 PDX, Pralsetinib 30 mg/kg BID, treatment day 21) was 28 g and 24 g and 25 g (2×) and 26 g and the “Animal Weight” value ([2]; LUAD-0087AS2 PDX, Pralsetinib 30 mg/kg BID, treatment day 24) was 28 g and 25 g (3×) and 26 g. The “Animal Weight” value ([2]; LUAD-0087AS2 PDX, Pralsetinib 30 mg/kg BID, treatment day 29) was 28 g and 25 g (3×) and 26 g, the “Animal Weight” value ([2]; LUAD-0087AS2 PDX, Pralsetinib 30 mg/kg BID, treatment day 32) was 29 g and 25 g (2×) and 26 g (2×) and the “Animal Weight” value ([2]; LUAD-0087AS2 PDX, Pralsetinib 30 mg/kg BID, treatment day 35) was 29 g and 25 g (3×) and 26 g. The “Animal Weight” value ([2]; LUAD-0087AS2 PDX, Pralsetinib 30 mg/kg BID, treatment day 38) was 25 g (3×) and 24 g and 26 g, the “Animal Weight” value ([2]; LUAD-0087AS2 PDX, Pralsetinib 30 mg/kg BID, treatment day 42) was 28 g and 25 g (2×) and 26 g (2×) and the “Animal Weight” value ([2]; LUAD-0087AS2 PDX, Pralsetinib 30 mg/kg BID, treatment day 45) was 28 g and 25 g (2×) and 26 g (2×). The EC50 ([3]; read-out: EC50 for Inhibition of Protein Phosphorylation (95% CI), AKT S473) was 0.4 nM, the EC50 ([3]; read-out: EC50 for Inhibition of Protein Phosphorylation (95% CI), ERK1/2 T202/Y204) was 3.5 nM and the EC50 ([3]; read-out: EC50 for Inhibition of Protein Phosphorylation (95% CI), MEK1/2 S217/S221) was 0.9 nM. It also gave an EC50 ([3]; read-out: EC50 for Inhibition of Protein Phosphorylation (95% CI), P70 RSK T421/S424) of 1.7 nM, an EC50 ([3]; read-out: EC50 for Inhibition of Protein Phosphorylation (95% CI), RET Y905) of 1.1 nM and an EC50 ([3]; read-out: EC50 for Inhibition of Protein Phosphorylation (95% CI), S6RP S235/S236) of 1.1 nM. The “% Inhibiton PDGFRα” value [4] was 57.1%, the “kinases inhibited by >50%” value [5] was 11 and the “% Inhibiton FLT4” value [6] was 74%.
